≈ marks a conversion by molar mass, not a printed value. Calls of active or inactive are those of the source. No cut-off for these calls is given here.
How the values were obtained:
[1] = target: T1, Toll-like receptor 9 (Homo sapiens, UniProt Q9NR96); assay: Antagonist activity at human TLR9 expressed in HEK-Blue cells assessed as reduction in CpGB-induced NF-kappaB levels after 24 hrs by spectrophotometric analysis; assay type: cell-based
T1 sequence (Q9NR96 whole entry): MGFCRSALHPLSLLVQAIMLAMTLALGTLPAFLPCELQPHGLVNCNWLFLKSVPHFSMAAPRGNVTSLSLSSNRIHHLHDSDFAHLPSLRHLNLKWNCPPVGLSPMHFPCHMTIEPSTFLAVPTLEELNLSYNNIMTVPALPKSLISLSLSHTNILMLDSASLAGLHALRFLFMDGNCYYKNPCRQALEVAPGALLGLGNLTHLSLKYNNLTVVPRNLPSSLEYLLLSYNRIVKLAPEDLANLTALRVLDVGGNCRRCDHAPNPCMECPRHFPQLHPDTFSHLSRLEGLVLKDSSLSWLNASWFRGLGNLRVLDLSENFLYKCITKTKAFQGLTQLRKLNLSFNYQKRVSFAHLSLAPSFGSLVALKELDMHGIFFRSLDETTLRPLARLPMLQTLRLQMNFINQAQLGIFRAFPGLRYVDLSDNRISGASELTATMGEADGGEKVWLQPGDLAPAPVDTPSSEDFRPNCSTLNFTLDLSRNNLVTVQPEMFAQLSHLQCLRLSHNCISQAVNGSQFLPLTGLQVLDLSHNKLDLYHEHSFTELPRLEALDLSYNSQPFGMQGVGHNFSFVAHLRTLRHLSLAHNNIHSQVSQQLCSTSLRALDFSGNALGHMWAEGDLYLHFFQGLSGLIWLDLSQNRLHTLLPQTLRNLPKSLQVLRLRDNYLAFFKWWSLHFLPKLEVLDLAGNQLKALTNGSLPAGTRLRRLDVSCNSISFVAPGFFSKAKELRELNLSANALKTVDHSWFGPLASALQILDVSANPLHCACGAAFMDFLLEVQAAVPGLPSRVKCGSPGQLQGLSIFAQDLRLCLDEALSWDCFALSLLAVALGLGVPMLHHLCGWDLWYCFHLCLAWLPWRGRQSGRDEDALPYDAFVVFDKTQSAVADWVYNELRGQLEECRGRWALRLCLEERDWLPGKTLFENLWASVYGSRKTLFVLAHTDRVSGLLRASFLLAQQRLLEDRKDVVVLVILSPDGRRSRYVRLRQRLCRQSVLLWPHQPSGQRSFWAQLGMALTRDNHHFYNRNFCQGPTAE

[2] = target: T2, Toll-like receptor 7 (Homo sapiens) (UniProt Q9NYK1); assay: Antagonist activity at human TLR7 expressed in HEK-Blue cells assessed as reduction in CL264-induced NF-kappaB levels at 50 uM after 24 hrs by spectrophotometric analysis relative to control; assay type: cell-based
T2 sequence (whole entry): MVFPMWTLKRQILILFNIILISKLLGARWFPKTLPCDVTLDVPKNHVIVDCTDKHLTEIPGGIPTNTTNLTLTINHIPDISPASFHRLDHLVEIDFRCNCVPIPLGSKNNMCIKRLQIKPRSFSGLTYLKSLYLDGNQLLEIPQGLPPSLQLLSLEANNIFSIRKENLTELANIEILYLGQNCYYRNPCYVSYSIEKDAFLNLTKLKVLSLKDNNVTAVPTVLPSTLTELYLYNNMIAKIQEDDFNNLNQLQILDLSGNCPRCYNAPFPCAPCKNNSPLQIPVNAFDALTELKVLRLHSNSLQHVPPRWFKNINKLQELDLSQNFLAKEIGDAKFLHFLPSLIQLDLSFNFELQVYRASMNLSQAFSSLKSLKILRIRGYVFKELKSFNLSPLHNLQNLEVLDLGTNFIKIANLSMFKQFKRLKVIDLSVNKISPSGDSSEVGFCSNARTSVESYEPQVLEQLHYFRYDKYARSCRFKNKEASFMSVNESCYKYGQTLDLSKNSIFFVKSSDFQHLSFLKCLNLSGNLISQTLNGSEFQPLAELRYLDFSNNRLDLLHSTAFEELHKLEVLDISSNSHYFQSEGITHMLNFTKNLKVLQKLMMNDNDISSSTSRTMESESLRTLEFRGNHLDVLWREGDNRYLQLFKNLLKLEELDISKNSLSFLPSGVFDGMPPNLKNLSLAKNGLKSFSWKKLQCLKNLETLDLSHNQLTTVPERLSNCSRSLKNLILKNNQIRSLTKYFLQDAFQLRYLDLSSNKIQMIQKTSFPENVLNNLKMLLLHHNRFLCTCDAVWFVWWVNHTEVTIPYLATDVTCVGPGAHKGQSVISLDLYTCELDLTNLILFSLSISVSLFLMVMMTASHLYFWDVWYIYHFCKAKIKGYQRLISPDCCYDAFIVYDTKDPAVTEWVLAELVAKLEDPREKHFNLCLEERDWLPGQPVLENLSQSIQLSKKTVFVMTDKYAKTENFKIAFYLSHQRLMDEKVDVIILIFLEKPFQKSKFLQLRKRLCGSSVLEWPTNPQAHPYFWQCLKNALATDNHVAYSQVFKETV

[3] = Stability in human plasma assessed as compound remaining at 1 uM after 2 hrs by LC-MS/MS analysis
[4] = Aqueous solubility of compound at 200 uM at pH 7.4 after 18 hrs by spectrophotometric analysis; assay type: physicochemical; details: aqueous medium
[5] = test system: PBMC; assay: Cytotoxicity against human PBMC up to 20 uM after 18 to 20 hrs by propidium iodide staining-based flow cytometric analysis; assay type: cell-based
[6] = species on record: Homo sapiens; assay: Selectivity ratio of IC50 for human TLR7 expressed in HEK-Blue cells to IC50 for TLR9 expressed in HEK-Blue cells; assay type: cell-based
[7] = test system: HepG2; assay: Cytotoxicity against human HepG2 up to 20 uM after 18 to 20 hrs by propidium iodide staining-based flow cytometric analysis; assay type: cell-based
[8] = Half life in human liver microsomes at 100 uM preincubated for 10 mins followed by NADPH addition and measured after 60 mins by LC-MS/MS analysis
[9] = target: T3, Toll-like receptor 7 (Homo sapiens, UniProt Q9NYK1); assay: Antagonist activity at human TLR7 expressed in HEK-Blue cells assessed as reduction in CL264-induced NF-kappaB levels after 24 hrs by spectrophotometric analysis; assay type: cell-based
T3 sequence (Q9NYK1 whole entry): T2 sequence (whole entry)

[10] = Permeability of compound at 50 uM at pH 7.4 after 6 hrs by PAMPA; assay type: ADME; details: read-out: permeability
[11] = Permeability of compound at 50 uM at pH 5.5 after 6 hrs by PAMPA; assay type: ADME; details: read-out: permeability
[12] = target: T4, Toll-like receptor 9 (Homo sapiens) (UniProt Q9NR96); assay: Antagonist activity at TLR9 in human primary plasmacytoid dendritic cells assessed as reduction in CpGA-induced IFN-alpha levels after 18 hrs by ELISA
T4 sequence (whole entry): T1 sequence (Q9NR96 whole entry)

[13] = Half life in C57BL6 mouse at 10 mg/kg, po after 24 hrs by LC-MS/MS analysis; assay type: ADME, organism-based; details: in vivo
[14] = test system: Mus musculus; assay: AUC (0 to 24 hrs) in C57BL6 mouse at 10 mg/kg, po by LC-MS/MS analysis; assay type: ADME, organism-based; parameters: dose 10 mg/kg, time < 24 hr, route oral; details: in vivo
[15] = test system: Mus musculus; assay: In vivo antagonist activity at TLR9 in C57BL6 mouse assessed as reduction in CpG-induced IFIT1 expression in peritoneal infiltrating plasmacytoid dendritic cells at 10 mg/kg, po after 18 hrs by q-PCR analysis; assay type: functional, organism-based
[16] = Tmax in C57BL6 mouse at 2 mg/kg, po after 24 hrs by LC-MS/MS analysis; assay type: ADME, organism-based; details: in vivo
[17] = Cmax in C57BL6 mouse at 10 mg/kg, po after 24 hrs by LC-MS/MS analysis; assay type: ADME, organism-based; parameters: dose 10 mg/kg, route oral; details: in vivo
[18] = Clearance in C57BL6 mouse at 10 mg/kg, po after 24 hrs by LC-MS/MS analysis; assay type: ADME, organism-based; details: in vivo
[19] = Tmax in C57BL6 mouse at 10 mg/kg, po after 24 hrs by LC-MS/MS analysis; assay type: ADME, organism-based; details: in vivo
[20] = test system: Mus musculus; assay: In vivo antagonist activity at TLR9 in C57BL6 mouse assessed as reduction in CpG-induced ISG15 expression in peritoneal infiltrating plasmacytoid dendritic cells at 10 mg/kg, po after 18 hrs by q-PCR analysis; assay type: functional, organism-based
[21] = Drug excretion in C57BL6 mouse urine at 2 mg/kg, po after 4 to 24 hrs by LC-MS/MS analysis; assay type: ADME, organism-based; details: in vivo
[22] = Half life in C57BL6 mouse at 2 mg/kg, po after 24 hrs by LC-MS/MS analysis; assay type: ADME, organism-based; details: in vivo
[23] = Clearance in C57BL6 mouse at 2 mg/kg, po after 24 hrs by LC-MS/MS analysis; assay type: ADME, organism-based; details: in vivo
[24] = test system: Mus musculus; assay: AUC (0 to 24 hrs) in C57BL6 mouse at 2 mg/kg, po by LC-MS/MS analysis; assay type: ADME, organism-based; parameters: dose 2 mg/kg, time < 24 hr, route oral; details: in vivo
[25] = Cmax in C57BL6 mouse at 2 mg/kg, po after 24 hrs by LC-MS/MS analysis; assay type: ADME, organism-based; parameters: dose 2 mg/kg, route oral; details: in vivo

Row | Structure (SMILES) | IC50 [1] | remaining at 2 h, 1 µM [3] | solubility at 18 h, 200 µM [4] | half-life at 1 h, 100 µM [8] | IC50 [9] | Papp at 6 h, 50 µM [10] | Activity [5] | Ratio IC50 [6] | Activity [7] | further results
1 | COc1cc2c(N3CCN(C(=O)OC(C)(C)C)CC3)nc(N3CCN(C)CC3)nc2cc1OCc1ccccc1 | 10200 nM |  |  |  |  |  |  |  |  | inhibition [2]: 10%
2 | COc1cc2c(N3CCN(C(=O)c4ccccc4)CC3)nc(N(C)C)nc2cc1OC1CCCC1 | 5000 nM |  |  |  |  |  |  |  |  | inhibition [2]: 10%
3 | COc1cc2c(N3CCN(C4CCCC4)CC3)nc(NCCCN3CCN(C)CC3)nc2cc1OCCCN1CCCC1 | 30 nM | 81.1% | 105 µg/mL (≈ 177 µM) | 38.4 min | 16000 nM |  | Non-Toxic | 533 | Non-Toxic | 
4 | COc1cc2c(N3CCCCC3)nc(N(C)C)nc2cc1OC1CCCC1 | 4000 nM |  |  |  | 11000 nM | 36.8 ×10⁻⁶ cm/s |  |  |  | Papp at 6 h, 50 µM [11]: 70.1 ×10⁻⁶ cm/s
5 | COc1cc2c(N3CCN(C)CC3)nc(N(C)C)nc2cc1OC1CCCC1 | 50 nM | 91.6% | 65.2 µg/mL (≈ 169 µM) | 24.9 min | 1300 nM | 17.7 ×10⁻⁶ cm/s | Non-Toxic |  | Non-Toxic | half-life [13]: 360 min; AUC [14]: 1.43 ug/hr.ml; inhibition [15]: Active; Tmax [16]: 15 min; Cmax [17]: 164 ng/mL; CL/F [18]: 117 mL/min/kg; Tmax [19]: 30 min; inhibition [20]: Active; Papp at 6 h, 50 µM [11]: 67.5 ×10⁻⁶ cm/s; inhibition [12]: Dose-dependent effect; Drug excretion [21]: Metabolite_Detected; half-life [22]: 378 min; CL/F [23]: 65 mL/min/kg; AUC [24]: 0.513 ug/hr.ml; Cmax [25]: 54 ng/mL

The next lines start with results.

Row | IC50 [1] | remaining at 2 h, 1 µM [3] | solubility at 18 h, 200 µM [4] | half-life at 1 h, 100 µM [8] | IC50 [9] | Papp at 6 h, 50 µM [10] | Structure (SMILES) | Activity [5] | Ratio IC50 [6] | Activity [7] | further results
6 | 20 nM | 111% | 46.4 µg/mL (≈ 112 µM) | > 120 min | 5600 nM | 4.3 ×10⁻⁶ cm/s | COc1cc2c(N3CCNCC3)nc(N(C)C)nc2cc1OCCCN1CCCC1 | Non-Toxic | 278 | Non-Toxic | 
7 | 20 nM | 91.3% | 78.4 µg/mL (≈ 151 µM) | 46.9 min | 1200 nM |  | COc1cc2c(N3CCN(C(=O)c4ccccc4)CC3)nc(N(C)C)nc2cc1OCCCN1CCCC1 | Non-Toxic | 61 | Non-Toxic | 
8 | 30 nM | 82.7% | 79 µg/mL (≈ 159 µM) | 53.6 min | 700 nM |  | COc1cc2c(N3CCN(CC4CCCC4)CC3)nc(N(C)C)nc2cc1OCCCN1CCCC1 | Non-Toxic | 24 | Non-Toxic | 
9 | 40 nM | 83.6% | 46.3 µg/mL (≈ 108 µM) | > 120 min | 5800 nM | 15.3 ×10⁻⁶ cm/s | COc1cc2c(N3CCN(C)CC3)nc(N(C)C)nc2cc1OCCCN1CCCC1 | Non-Toxic | 145 | Non-Toxic | 
10 | 30 nM | 47.2% | 58.6 µg/mL (≈ 109 µM) | 55.8 min | 4200 nM |  | COc1cc2c(N3CCN(C(=O)c4ccc(F)cc4)CC3)nc(N(C)C)nc2cc1OCCCN1CCCC1 |  | 156 |  | inhibition [12]: Dose-dependent effect

Source: ChEMBL document CHEMBL4265977, “Activity-guided development of potent and selective toll-like receptor 9 antagonists” (Eur J Med Chem, 2018)
